The structures appear in SMILES notation.

In general, IC50 refers to the midpoint of a concentration-inhibition curve. Read a low IC50 as greater potency. As usually defined, the melting point is the temperature of the solid-liquid transition.

For series [1], the system named is Interleukin-1β (IL-1β) Production in HL-60 cells. Briefly: Inhibitory activity against interleukin-1β production (Test 1). It counts as cell-based. The note with it: Homo sapiens, 72 h, lipopolysaccharide 10 μg/ml, culturing for 3 days, compared with control without test sample. The procedure:
(Inhibitory activity against interleukin-1β production)
HL-60 cells were cultured for 4 days until confluence on RPMI 1640 medium with 10% fetal bovine serum (FBS) added thereto. The medium was centrifuged. The supernatant was discarded, and the cells were then suspended at 1×10^6 cells/me on RPMI 1640 medium with 3% FBS, and lipopolysaccharide was added to give a final concentration of 10 μg/ml. The culture was inoculated at 1 ml/well to a 24-well plate. A test compound was added at 1 μl/well, followed by culturing for 3 days. Three days later, the amount of interleukin-1β in each […] was determined by a comparison in yield with a control to which no test sample was added.

Regarding `COc1ccc(-c2cc(NC=O)c(=O)n(CC=Cc3ccc(Cl)cc3)n2)cc1` [Example 112, 2-(4-chlorocinnamyl)-4-formylamino-6-(4-methoxyphenyl)-2H-pyridazin-3-one], the melting point is 213 to 213.8 °C. In addition, half-maximal inhibition in series [1] (IC50) required 0.387 µM.
In the same order, the values of `CNC(=O)C1CC(c2ccc(OC)cc2)=NN(CC(C)C)C1=O` (stereo not shown) [Example 128, 4,5-dihydro-2-isobutyl-6-(4-methoxyphenyl)-4-methylcarbamoyl-2H-pyridazin-3-one] are 124.2 to 125 °C and 0.4 µM.

(Values after patent publication US6403586B1, “Pyridazine derivatives and drugs containing the same as the active ingredient” (Kowa Co., Ltd., priority 1998, dated 2002).)
